ChEMBL document CHEMBL3885861, “Open TG-GATES”
Where “and” joins values, the source holds several entries; their conditions need not be identical. Identical values can stand only once.

Species: Rattus norvegicus
Assay: Open TG-GATES - Regimen: Single
Format: toxicity, organism-based, Sprague-Dawley
Parameters: regimen Single, gender Male, age 6 weeks
Conditions: in vivo, po, route gavage; for ALT / AST / BUN / CRE / Ca / Cl / GLC / IP / K / LDH / Na / PL / RALB / TC / TG / TP / A/G / ALP / DBIL / TBIL / gamma-GTP: tissue Plasma; for APTT / Bas / Eos / Fbg / Hb / Ht / Lym / MCH / MCHC / MCV / Mono / Neu / PT / Plat / RBC / Ret / WBC: tissue Blood; for KIDNEY_L / KIDNEY_R / KIDNEY_TOTAL: tissue Kidney; for LIVER: tissue Liver
[1] = 0 mg/kg, 24 h, dose level Control

With `O=C1CN(/N=C/c2ccc([N+](=O)[O-])o2)C(=O)N1` [NITROFURANTOIN] the ALT [1] was 40.2 IU/L and 32.2 IU/L, the AST [1] was 67 IU/L and 61.8 IU/L and the BUN [1] was 15.6 mg/dL and 16 mg/dL. The CRE [1] was 0.4 mg/dL, the Ca [1] was 10.9 mg/dL and 11.3 mg/dL and the Cl [1] was 101.4 meq/L and 105.8 meq/L. For the same compound, the GLC [1] was 211.2 mg/dL and 198.2 mg/dL, the IP [1] was 7.6 mg/dL and 9.2 mg/dL and the K [1] was 4 meq/L and 4.4 meq/L. For the same compound, the LDH [1] was 161.6 IU/L and 69.4 IU/L, the Na [1] was 140 meq/L and 141 meq/L and the PL [1] was 149.8 mg/dL and 148.2 mg/dL. The RALB [1] was 3.2 g/dL and 3.9 g/dL, the TC [1] was 76.4 mg/dL and 80.6 mg/dL and the TG [1] was 110 mg/dL and 123 mg/dL. The TP [1] was 5.6 g/dL and 5.5 g/dL, the TERMINAL_BW (10 mg/kg, 3 h, dose level Low) was 221.7 g and the APTT (10 mg/kg, 3 h, dose level Low) was 20.2 s. The Bas (10 mg/kg, 3 h, dose level Low) was 0%, the Eos (10 mg/kg, 3 h, dose level Low) was 1.2% and the Fbg (10 mg/kg, 3 h, dose level Low) was 216.6 mg/dL. For the same compound, the Hb (10 mg/kg, 3 h, dose level Low) was 13.5 g/dL, the Ht (10 mg/kg, 3 h, dose level Low) was 38.5% and the Lym (10 mg/kg, 3 h, dose level Low) was 77%. The MCH (10 mg/kg, 3 h, dose level Low) was 21.5 pg, the MCHC (10 mg/kg, 3 h, dose level Low) was 35.1% and the MCV (10 mg/kg, 3 h, dose level Low) was 61.3 fL. It also gave a Mono (10 mg/kg, 3 h, dose level Low) of 3%, a Neu (10 mg/kg, 3 h, dose level Low) of 17.4% and a PT (10 mg/kg, 3 h, dose level Low) of 12.5 s. The Plat (10 mg/kg, 3 h, dose level Low) was 112.9 x10_4/uL, the RBC (10 mg/kg, 3 h, dose level Low) was 628.8 x10_4/ul and the Ret (10 mg/kg, 3 h, dose level Low) was 7.4%. It also gave a WBC (10 mg/kg, 3 h, dose level Low) of 88.6 x10_2/uL, a KIDNEY_L (10 mg/kg, 3 h, dose level Low) of 1 g and a KIDNEY_R (10 mg/kg, 3 h, dose level Low) of 1 g. For the same compound, the KIDNEY_TOTAL (10 mg/kg, 3 h, dose level Low) was 2 g, the LIVER (10 mg/kg, 3 h, dose level Low) was 10.3 g and the A/G (10 mg/kg, 3 h, dose level Low) was 1.6. For the same compound, the ALP (10 mg/kg, 3 h, dose level Low) was 999 IU/L, the ALT (10 mg/kg, 3 h, dose level Low) was 42.2 IU/L and the AST (10 mg/kg, 3 h, dose level Low) was 69.6 IU/L. For the same compound, the BUN (10 mg/kg, 3 h, dose level Low) was 12.2 mg/dL, the CRE (10 mg/kg, 3 h, dose level Low) was 0.3 mg/dL and the Ca (10 mg/kg, 3 h, dose level Low) was 10.8 mg/dL. The Cl (10 mg/kg, 3 h, dose level Low) was 101.8 meq/L, the DBIL (10 mg/kg, 3 h, dose level Low) was 0.076 mg/dL and the GLC (10 mg/kg, 3 h, dose level Low) was 194.8 mg/dL. It also gave an IP (10 mg/kg, 3 h, dose level Low) of 8.7 mg/dL, a K (10 mg/kg, 3 h, dose level Low) of 3.9 meq/L and an LDH (10 mg/kg, 3 h, dose level Low) of 198.6 IU/L. The Na (10 mg/kg, 3 h, dose level Low) was 141 meq/L, the PL (10 mg/kg, 3 h, dose level Low) was 141.2 mg/dL and the RALB (10 mg/kg, 3 h, dose level Low) was 3.3 g/dL. The TBIL (10 mg/kg, 3 h, dose level Low) was 0.1 mg/dL, the TC (10 mg/kg, 3 h, dose level Low) was 81 mg/dL and the TG (10 mg/kg, 3 h, dose level Low) was 67.4 mg/dL. It also gave a TP (10 mg/kg, 3 h, dose level Low) of 5.4 g/dL, a gamma-GTP (10 mg/kg, 3 h, dose level Low) of 0.8 IU/L and a TERMINAL_BW (10 mg/kg, 6 h, dose level Low) of 217.9 g. For the same compound, the APTT (10 mg/kg, 6 h, dose level Low) was 19.4 s, the Bas (10 mg/kg, 6 h, dose level Low) was 0% and the Eos (10 mg/kg, 6 h, dose level Low) was 1%. It also gave a Fbg (10 mg/kg, 6 h, dose level Low) of 222.2 mg/dL, a Hb (10 mg/kg, 6 h, dose level Low) of 13.6 g/dL and a Ht (10 mg/kg, 6 h, dose level Low) of 38.4%. It also gave a Lym (10 mg/kg, 6 h, dose level Low) of 76.2%, an MCH (10 mg/kg, 6 h, dose level Low) of 21.6 pg and an MCHC (10 mg/kg, 6 h, dose level Low) of 35.3%. It also gave an MCV (10 mg/kg, 6 h, dose level Low) of 61 fL, a Mono (10 mg/kg, 6 h, dose level Low) of 2.8% and a Neu (10 mg/kg, 6 h, dose level Low) of 18.4%. It also gave a PT (10 mg/kg, 6 h, dose level Low) of 12.7 s, a Plat (10 mg/kg, 6 h, dose level Low) of 121.4 x10_4/uL and an RBC (10 mg/kg, 6 h, dose level Low) of 629.8 x10_4/ul. For the same compound, the Ret (10 mg/kg, 6 h, dose level Low) was 7.6%, the WBC (10 mg/kg, 6 h, dose level Low) was 96.2 x10_2/uL and the KIDNEY_L (10 mg/kg, 6 h, dose level Low) was 1 g. The KIDNEY_R (10 mg/kg, 6 h, dose level Low) was 1 g, the KIDNEY_TOTAL (10 mg/kg, 6 h, dose level Low) was 2 g and the LIVER (10 mg/kg, 6 h, dose level Low) was 9.9 g. It also gave an A/G (10 mg/kg, 6 h, dose level Low) of 1.7, an ALP (10 mg/kg, 6 h, dose level Low) of 930.6 IU/L and an ALT (10 mg/kg, 6 h, dose level Low) of 32 IU/L. For the same compound, the AST (10 mg/kg, 6 h, dose level Low) was 61 IU/L, the BUN (10 mg/kg, 6 h, dose level Low) was 11.4 mg/dL and the CRE (10 mg/kg, 6 h, dose level Low) was 0.4 mg/dL. The Ca (10 mg/kg, 6 h, dose level Low) was 10.7 mg/dL, the Cl (10 mg/kg, 6 h, dose level Low) was 102.8 meq/L and the DBIL (10 mg/kg, 6 h, dose level Low) was 0.088 mg/dL. It also gave a GLC (10 mg/kg, 6 h, dose level Low) of 194.2 mg/dL, an IP (10 mg/kg, 6 h, dose level Low) of 8.8 mg/dL and a K (10 mg/kg, 6 h, dose level Low) of 4.2 meq/L. It also gave an LDH (10 mg/kg, 6 h, dose level Low) of 175.8 IU/L, a Na (10 mg/kg, 6 h, dose level Low) of 140.6 meq/L and a PL (10 mg/kg, 6 h, dose level Low) of 140.8 mg/dL. For the same compound, the RALB (10 mg/kg, 6 h, dose level Low) was 3.5 g/dL, the TBIL (10 mg/kg, 6 h, dose level Low) was 0.1 mg/dL and the TC (10 mg/kg, 6 h, dose level Low) was 75 mg/dL. For the same compound, the TG (10 mg/kg, 6 h, dose level Low) was 77.6 mg/dL, the TP (10 mg/kg, 6 h, dose level Low) was 5.5 g/dL and the gamma-GTP (10 mg/kg, 6 h, dose level Low) was 0.6 IU/L. The TERMINAL_BW (10 mg/kg, 9 h, dose level Low) was 215.9 g, the APTT (10 mg/kg, 9 h, dose level Low) was 18.5 s and the Bas (10 mg/kg, 9 h, dose level Low) was 0%. For the same compound, the Eos (10 mg/kg, 9 h, dose level Low) was 1%, the Fbg (10 mg/kg, 9 h, dose level Low) was 226.2 mg/dL and the Hb (10 mg/kg, 9 h, dose level Low) was 13.3 g/dL. The Ht (10 mg/kg, 9 h, dose level Low) was 37.5%, the Lym (10 mg/kg, 9 h, dose level Low) was 79.6% and the MCH (10 mg/kg, 9 h, dose level Low) was 21.9 pg. It also gave an MCHC (10 mg/kg, 9 h, dose level Low) of 35.5%, an MCV (10 mg/kg, 9 h, dose level Low) of 61.8 fL and a Mono (10 mg/kg, 9 h, dose level Low) of 2.6%. It also gave a Neu (10 mg/kg, 9 h, dose level Low) of 15.8%, a PT (10 mg/kg, 9 h, dose level Low) of 12.7 s and a Plat (10 mg/kg, 9 h, dose level Low) of 112.8 x10_4/uL. For the same compound, the RBC (10 mg/kg, 9 h, dose level Low) was 607 x10_4/ul, the Ret (10 mg/kg, 9 h, dose level Low) was 7.3% and the WBC (10 mg/kg, 9 h, dose level Low) was 86.5 x10_2/uL. The KIDNEY_L (10 mg/kg, 9 h, dose level Low) was 1 g, the KIDNEY_R (10 mg/kg, 9 h, dose level Low) was 1 g and the KIDNEY_TOTAL (10 mg/kg, 9 h, dose level Low) was 2 g. For the same compound, the LIVER (10 mg/kg, 9 h, dose level Low) was 9.4 g, the A/G (10 mg/kg, 9 h, dose level Low) was 1.6 and the ALP (10 mg/kg, 9 h, dose level Low) was 712.8 IU/L. For the same compound, the ALT (10 mg/kg, 9 h, dose level Low) was 32.2 IU/L, the AST (10 mg/kg, 9 h, dose level Low) was 56.2 IU/L and the BUN (10 mg/kg, 9 h, dose level Low) was 10.2 mg/dL. For the same compound, the CRE (10 mg/kg, 9 h, dose level Low) was 0.3 mg/dL, the Ca (10 mg/kg, 9 h, dose level Low) was 10.4 mg/dL and the Cl (10 mg/kg, 9 h, dose level Low) was 103 meq/L. The DBIL (10 mg/kg, 9 h, dose level Low) was 0.068 mg/dL, the GLC (10 mg/kg, 9 h, dose level Low) was 197.2 mg/dL and the IP (10 mg/kg, 9 h, dose level Low) was 9.4 mg/dL. The K (10 mg/kg, 9 h, dose level Low) was 3.8 meq/L, the LDH (10 mg/kg, 9 h, dose level Low) was 205.2 IU/L and the Na (10 mg/kg, 9 h, dose level Low) was 140.6 meq/L. It also gave a PL (10 mg/kg, 9 h, dose level Low) of 140 mg/dL, an RALB (10 mg/kg, 9 h, dose level Low) of 3.4 g/dL and a TBIL (10 mg/kg, 9 h, dose level Low) of 0.1 mg/dL. It also gave a TC (10 mg/kg, 9 h, dose level Low) of 79.8 mg/dL, a TG (10 mg/kg, 9 h, dose level Low) of 51.2 mg/dL and a TP (10 mg/kg, 9 h, dose level Low) of 5.5 g/dL. It also gave a gamma-GTP (10 mg/kg, 9 h, dose level Low) of 0.6 IU/L, a TERMINAL_BW (10 mg/kg, 24 h, dose level Low) of 233.4 g and an APTT (10 mg/kg, 24 h, dose level Low) of 18.6 s. The Bas (10 mg/kg, 24 h, dose level Low) was 0%.
